In one experiment the test system is bacteria. Conditions: cited from earlier work.
Experiment [1] concerns bacteria which had become resistant to the other rifamycins. The settings on record: namely rifampicin; cited from earlier work.
Another experiment concerns leukemic polymerase. The experiment can be described thus: inhibition of DNA polymerase of human leukemic blood lymphoblasts. The class given is biochemical. The settings on record: synthetic RNA template (poly rA.rU). The source says: Similar results were found by using tumor cell polymerases of human origin. In this case the inhibiting activity was studied also on normal cells polymerases to characterize a selective effect. Representative rifamycin derivatives of formula I have been evaluated for their effects on […] purified DNA polymerase isolated from (I) human normal (PHA stimulated) blood lymphocytes (2) a lymphoblast cell line (derived from a normal donor) and (3) human leukemic blood lymphoblast. Synthetic and/or native templates were used.
Leukemic lymphoblasts were isolated from the peripheral blood of patients with acute lymphocytic leukemia (ALL) by leukophoresis. The cells were washed and erythrocytes removed by hypotonic lysis. Normal lymphocytes were obtained from the peripheral blood from healthy donors after removal of granulocytes by nylon column chromatography. They were stimulated with phytohemagglutinin (PHA) for 72 hours as described before (Gallo et al., Nature, 228, 927, 1970; Gallo et al. Science, 165, 400, 1968) in order to maximize DNA polymerase activity.
Cellular DNA polymerase were extracted and purified from normal blood (PHA stimulated) lymphocytes, and leukemic blood lymphocytes and 1788 lymphoid cells by homogenization in hypotonic buffer followed by Triton X 100 and/or high salt extraction of the extraylsosomal pellet. After differential centrifugation cellular extracts were further purified by DEAE cellulose, phosphocellulose, and Sephadex G 200 column chromatography. DNA polymerase Assays
DNA polymerase assays were carried out in a final volume of 100 μ l. The assay mixture contained Tris-HCl buffer, pH 8.3, 50 mM; MgAc, 6.0 mM; dithiothretiol, 8.0 mM; NaCl, 60 mM. […]
In these cases reactions were initiated by adding enzyme to the complete reaction mixture which included the inhibitor. […] The products were collected on Millipore filter, washed extensively with 5% TCA and 1 ml. of DMSO-ethanol-0.1 M NaCl mixture (0.5:70;29.5), dried and counted in 2 ml. of BBS3 (Beckman) and 10 ml. of liquifluor (New England Nuclear) in a Packard liquid scintillation counter.

In experiment [2] the test system is RNA dependent DNA polymerase of murine sarcoma virus (endogenous) and DNA dependent DNA polymerase activity of purified enzymes. Briefly: inhibition of murine sarcoma virus DNA polymerase (3H-dTTP incorporation). The class given is biochemical. Conditions: at a concentration of 2-100 μg/ml or less; 60 min. As to the method: The inhibiting activity of the invention compounds has been tested on RNA dependent DNA polymerase of murine sarcoma virus (endogenous) and DNA dependent DNA polymerase activity of purified enzymes. The inhibition was tested according to the methods described by C. Gurgo et al., Nature, New Biology, 229, 111, 1971.
The effect of different concentrations of drugs on polymerase activity was determined by following 3H-dTTP (tritiated thymine deoxyriboside triphosphate) incorporation into the insoluble fraction. A typical example of the experimental procedures is the following: Isolation of virus and purification of viral polymerase
Virus was isolated and purified from murine sarcoma virus (Moloney isolate) transformed rat cells (78Al cells) and murine sarcoma virus (Harvey isolate) transformed mouse cells (MEH cells) as previously described (Green et al., Proc. Nat. Acad. Sci. USA 67. 385-393, 1970, Rokutanda et al., Nature, 227, 1026-1028, 1970). The virion polymerase was purified 20-40 fold by incubation of purified virus with 0.5% NP-40 (nonidet P-40) in 0.1 M NaCl, 0.01 M Tris buffer (pH 7.6), 0.001 M EDTA for 5 minutes at room temperature and zonal centrifugration in 15-30% sucrose gradients in 10 mM (millimoles) sodium phosphate buffer (pH 7.4), 2.5 mM MgCl2, 10 mM dithiothreitol, and 5% glycerol for 24 hours at 38.000 rpm in a Spinco SW41 rotor. The peak fractions of enzyme activity (13-17) of twenty-two fractions collected, were pooled, and stored at -70°C in 30% glycerol. DNA polymerase assay
Enzyme incubation was performed for 1 hour at 37°C in 100 μl of reaction mixture containing 40 mM Tris buffer (pH 8.0), 5mM dithiothreitol, 30 mM NaCl, 2.5 mM MgCl2, 0.1 mM daTP, dGTP, dCTP, and 10 μCi of ^3 H-dTTP (12-18 Ci/mmole) as described by Green et al., in Proc. Nat. Acad. Sci. US 67, 385-393, 1970. The reaction was terminated by the addition of 150 μ l of 1N perchloric acid. Calf thymus DNA (100 μg) were added as carrier; the radioactive DNA product was processed as described in the two papers mentioned above.
Endogenous RNA dependent DNA polymerase activity was measured after the addition of 0.01% PN-40 to purified virus at the time of assay. The DNA polymerase activity of purified viral polymerase was measured with 2 μg of poly d(A-T) as template and no NP-40. Test for inhibition by rifamycin derivatives
Rifamycin derivatives were dissolved in dimethylsulfoxide (DMSO) at a concentration of 5 mg/ml and stored at 4°C. Inhibition of the endogenous RNA dependent DNA polymerase activity was tested by adding 2 μ l of derivative appropriately diluted in DMSO or 2 μ l of DMSO (control) to the assay mixture prior to addition to disrupted virus which contained 15 to 30 μg of viral protein. Enzyme incubation was performed for 60 minutes at 37°C. Inhibition of purified enzyme was tested by pre-incubation of 2 μl of derivative of DMSO with 30 μl of enzyme (1 to 2 μg protein) for 10 minutes at 37°C; then 70 μ l of substrate mixture were added and the mixture further incubated and processed as described above.

Experiment [3] concerns polymerase from murine leukemia virus (reverse transcriptase). The experiment can be described thus: inhibition of polymerase from murine leukemia virus. The settings on record: endogenous 70S RNA template. It counts as biochemical. How it is done: The inhibiting effect of reverse transcriptase has been confirmed also by test on polymerase from murine leukemia virus. Murine leukemia virus RNA polymerase was prepared from TRITON X 100 disrupted virions as described by Gallo et al., Nature, New Biology, 232, 141 (1971). Virus of both Rauscher and Moloney types were previously purified by banding in the 1.16 g/ml region of a sucrose density gradient after initial low speed centrifugation to remove cellular debris and cushioning on 60% sucrose through 20% sucrose. Final concentration of virus preparation was at 10^11 particles/ml. As template endogenous 70S RNA was used.

Regarding `COC1C=COC2(C)Oc3c(C)c(O)c4c(O)c(c(C=NO)c(O)c4c3C2=O)NC(=O)C(C)=CC=CC(C)C(O)C(C)C(O)C(C)C(OC(C)=O)C1C` (stereo not drawn) [oxime of 3-formylrifamycin SV], the antibacterial activity result with bacteria is recorded as “good antibacterial activity”. Further, the “effect against resistant bacteria” value in experiment [1] was “practically no effect”.
With `CCCCCON=Cc1c2c(O)c3c(O)c(C)c4c(c3c1O)C(=O)C(C)(OC=CC(OC)C(C)C(OC(C)=O)C(C)C(O)C(C)C(O)C(C)C=CC=C(C)C(=O)N2)O4` (stereo not drawn) [Example 5], the “susceptibility compared with synthetic DNA template” value in the experiment on leukemic polymerase is listed as “even more susceptible”. Moreover, the “incorporation of 3H-dTTP relative to control tests” value in experiment [2] is reported as “less than 10%”. The “concentration giving inhibition of about 50 percent” value in experiment [3] is 10 to 25 µg/mL.
As to `COC1C=COC2(C)Oc3c(C)c(O)c4c(O)c(c(C=NOCCN5CCOCC5)c(O)c4c3C2=O)NC(=O)C(C)=CC=CC(C)C(O)C(C)C(O)C(C)C(OC(C)=O)C1C` (stereo not drawn) [O-morpholinoethyl], the antibacterial activity result with bacteria was “good antibacterial activity”. Besides, the “effect against resistant bacteria” value in experiment [1] is reported as “practically no effect”.
Turning to `CCCCCCCCON=Cc1c2c(O)c3c(O)c(C)c4c(c3c1O)C(=O)C(C)(OC=CC(OC)C(C)C(OC(C)=O)C(C)C(O)C(C)C(O)C(C)C=CC=C(C)C(=O)N2)O4` (stereo not drawn) [Example 6], the “susceptibility compared with synthetic DNA template” value with leukemic polymerase is “even more susceptible”. Also, in experiment [2], the “incorporation of 3H-dTTP relative to control tests” value was “less than 10%”. Further, the “concentration giving inhibition of about 50 percent” value in experiment [3] fell in the range of 10 to 25 µg/mL.
For `COC1C=COC2(C)Oc3c(C)c(O)c4c(O)c(c(C=NOC(c5ccccc5)c5ccccc5)c(O)c4c3C2=O)NC(=O)C(C)=CC=CC(C)C(O)C(C)C(O)C(C)C(OC(C)=O)C1C` (stereo not drawn) [Example 16], the “incorporation of 3H-dTTP relative to control tests” value in experiment [2] was “less than 10%”.
As to `CON=Cc1c2c(O)c3c(O)c(C)c4c(c3c1O)C(=O)C(C)(OC=CC(OC)C(C)C(OC(C)=O)C(C)C(O)C(C)C(O)C(C)C=CC=C(C)C(=O)N2)O4` (stereo not drawn) [O-methyl], the antibacterial activity entry with bacteria is listed as “good antibacterial activity”. In addition, the “effect against resistant bacteria” value in experiment [1] was “practically no effect”.
For `COC1C=COC2(C)Oc3c(C)c(O)c4c(O)c(c(C=NOCCc5ccccc5)c(O)c4c3C2=O)NC(=O)C(C)=CC=CC(C)C(O)C(C)C(O)C(C)C(OC(C)=O)C1C` (stereo not drawn) [Example 13], the “incorporation of 3H-dTTP relative to control tests” value in experiment [2] is “less than 10%”.
In the case of `COC1C=COC2(C)Oc3c(C)c(O)c4c(O)c(c(C=NOCCCc5ccccc5)c(O)c4c3C2=O)NC(=O)C(C)=CC=CC(C)C(O)C(C)C(O)C(C)C(OC(C)=O)C1C` (stereo not drawn) [Example 14], in the experiment with leukemic polymerase, the “susceptibility compared with synthetic DNA template” value is reported as “even more susceptible”. The “incorporation of 3H-dTTP relative to control tests” value in experiment [2] was “less than 10%”. Besides, the “concentration giving inhibition of about 50 percent” value in experiment [3] fell in the range of 10 to 25 µg/mL.
For the compound `CCCCON=Cc1c2c(O)c3c(O)c(C)c4c(c3c1O)C(=O)C(C)(OC=CC(OC)C(C)C(OC(C)=O)C(C)C(O)C(C)C(O)C(C)C=CC=C(C)C(=O)N2)O4` (stereo not drawn) [Example 4], in experiment [2], the “incorporation of 3H-dTTP relative to control tests” value is “less than 10%”.

(Values after patent US3933800A, “New 3-formylrifamycin SV derivatives” (Gruppo Lepetit S.p.A., priority 1971, dated 1976).)
